The numbers were not newly measured in patent US9675603B2, “Solid pharmaceutical compositions of ppary modulator” (InteKrin Therapeutics, Inc., priority 2010, dated 2017), which cites them from elsewhere.

`O=S(=O)(Nc1cc(Cl)c(Oc2cnc3ccccc3c2)c(Cl)c1)c1ccc(Cl)cc1Cl.O=S(=O)(O)c1ccccc1` [besylate salt of compound 101, 2,4-Dichloro-N-[3,5-dichloro-4-(quinolin-3-yloxy)-phenyl]-benzenesulfonamide benzenesulfonate salt]: the “Stability and hygroscopic properties” value (compared to other salts of compound 101, U.S. Pat. No. 7,223,761 B2) was “superior stability and hygroscopic properties”. Besides, the Solubility entry (in aqueous solvents and in most organic solvents) was “sparingly soluble”.
